Measurements taken from patent US8236512B1, “Methods of developing terpene synthase variants” (Amyris, Inc., priority 2011, dated 2012).

Biological target: Artemisia annua β-farnesene synthase (SEQ ID NO: 111) variant FS_C_8 F11S/V24D/L18I/M35T/T196S/Y288F/T319S/R348K/T385A/I434T/T446N/I460V/V467I (parent coding se (Artemisia annua, UniProt Q9FXY7))
Experiment: Steady-state kinetics of purified farnesene synthase variant FS_C_8
Assay type: biochemical
Conditions: purified enzyme

Sequence of Artemisia annua β-farnesene synthase (SEQ ID NO: 111) variant FS_C_8 F11S/V24D/L18I/M35T/T196S/Y288F/T319S/R348K/T385A/I434T/T446N/I460V/V467I (parent coding se (Q9FXY7 whole entry F11S/L18I/V24D/M35T/T196S/Y288F/T319S/R348K): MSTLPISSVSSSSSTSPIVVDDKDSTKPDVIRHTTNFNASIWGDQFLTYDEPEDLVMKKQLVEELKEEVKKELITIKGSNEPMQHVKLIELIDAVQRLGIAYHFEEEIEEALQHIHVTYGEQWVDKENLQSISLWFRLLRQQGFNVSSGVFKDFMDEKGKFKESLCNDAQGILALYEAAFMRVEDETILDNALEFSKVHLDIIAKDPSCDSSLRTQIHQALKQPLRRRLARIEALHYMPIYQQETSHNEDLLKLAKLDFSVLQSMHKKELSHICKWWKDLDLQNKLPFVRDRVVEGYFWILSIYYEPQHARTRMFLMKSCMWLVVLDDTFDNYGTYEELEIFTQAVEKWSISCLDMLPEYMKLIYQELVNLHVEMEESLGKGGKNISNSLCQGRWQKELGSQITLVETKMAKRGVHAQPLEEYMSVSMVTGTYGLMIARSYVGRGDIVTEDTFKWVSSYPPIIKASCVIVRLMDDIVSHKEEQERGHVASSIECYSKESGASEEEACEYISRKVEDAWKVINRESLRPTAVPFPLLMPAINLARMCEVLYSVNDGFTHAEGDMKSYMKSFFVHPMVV

`CC(C)=CCC/C(C)=C/CC/C(C)=C/CO[P@@](=O)(O)OP(=O)(O)O` (stereo in doubt) [FPP, farnesyl diphosphate] was tested. Which Km did it give?
The Km was 1.55 ± 0.76 µM.
